Measured values reported in patent US9169509B2, “Topoisomerase 2b as a predictor of susceptibility to anthracycline-induced cardiotoxicity” (Board of Regents, The University of Texas System, priority 2013, dated 2015).

Key:
[1] = test system: DNA double strand breaks in the heart; test: Detection of DNA double strand breaks (γ-H2AX staining) in heart sections; assay type: in vivo, mouse; conditions: acute doxorubicin 25 mg/kg, 16 h
Protocol: After mice were sacrificed, hearts were perfused with ice-cold PBS, quickly removed, embedded in OCT compound (Fisher Scientific), and snap-frozen in liquid nitrogen. The heart was sectioned to 5 μm-thick slices using a cryostat. Heart sections were stored at −80° C. until immunofluorescence staining was performed. Heart sections were rinsed with PBS at room temperature, fixed in BD Cytofix/Cytoperm solution (BD Biosciences) for 15 m, washed in PBS, and permeabilized in BD Perm/Wash solution for 30 m. Heart sections were first blocked with BSA (2 mg/ml) for 30 m, then incubated with an mouse monoclonal anti-γ-H2AX antibody conjugated with Alexa Fluor 555 (Clone N1-431, BD Biosciences) for 1 h. Nuclei were stained with DAPI (Sigma, 1 μg/ml PBS), and the slides were sealed for examination with an Olympus epifluorescence microscope (Model BX51). To quantify DSBs, the numbers of γ-H2AX-positive nuclei and the total nuclei were counted in 5 microscopic fields (400×) per section. For each mouse, five heart sections were counted to determine the percentage of γ-H2AX-positive nuclei.
To further confirm the cardio-protective effect of Dex, DNA double strand breaks were assessed in heart tissues. Dexrazoxane (100 mg/kg) was injected (ip) 8 hrs prior to doxorubicin (25 mg/kg) treatment. Hearts were harvested 16 hr after doxorubicin treatment. The percentage of γH2AX-positive nuclei was counted in 5 fields (400×) in each heart section. Five sections were counted in each heart to determine the average percentage of γH2AX-positive nuclei.

[2] = test system: cardiomyocytes; test: Oxygen consumption rate (Seahorse XF96) of isolated cardiomyocytes; assay type: in vivo, mouse; conditions: wild type cardiomyocytes, 72 hrs after doxorubicin 25 mg/kg; not in Top2b deleted
Protocol: FIGS. 5a-c: a. Determination of oxygen consumption rate (OCR). Cardiomyocytes were isolated from hearts of Top2b^+/+ and Top2b^Δ/Δ mice 72 hrs after treatment with doxorubicin (25 mg/kg; right bars) or drug vehicle (left bars). The cardiomyocytes were seeded in 96-well plates for oxygen consumption measurement using a Seahorse XF96 instrument. OCR was measured continuously for 90 min in […] from each mouse. The basic OCR was hardly changed during the 90 min measurement, therefore, the OCR at 90 min was compared among the groups. After measurement, the number of cells was counted. Results were normalized as pmoles of oxygen consumed per min per 1,000 cells. Bars represent means±SEM. Asterisk indicates statistically significant difference (p<0.05). b. ROS production in the hearts. Representative images of heart sections stained with Dihydroethidium (DHE), which, after being oxidized, intercalates into DNA and stains the nuclei red. Hearts were harvested 16 hrs after doxorubicin treatment (25 mg/kg) and snap-frozen as described. Heart sections were stained with DHE immediately. […] Quantification of ROS production in FIG. 5b. The numbers of DHE-positive and total nuclei were counted as described and the percentage of DHE-positive nuclei was determined. Quantitative data (mean±SEM) were shown as a bar graph below the images. […]

[3] = test system: heart sections; test: Masson's Trichrome staining of heart sections (fibrosis); assay type: in vivo, mouse
Protocol: FIGS. 6a-e: a. Schematic of chronic doxorubicin treatment protocol. All mice received a baseline MRI scan first. Tamoxifen was then administered by gavage at a dose of 25 mg/kg, once a day for 5 consecutive days. […] After the last MRI scan, mice were sacrificed and the hearts were removed and examined for histological changes and Top2b expression. b. RT-qPCR of genes involved in mitochondrial biogenesis. Mice were treated with doxorubicin (5 mg/kg) once a week for 5 weeks. Cardiomyocytes were isolated from the heart 72 hr after the last dose. Total RNA was extracted for RTqPCR analysis of genes important for the function and structure of the mitochondria. For each mRNA shown relative expression is graphed for Top2b^+/+ Control, Top2b^+/+ Dox, Top2b^Δ/Δ Control, and Top2b^Δ/Δ Dox (from left to right). One way ANOVA was used to determine statistical significance (p<0.05). Error bars indicated STDEV. The asterisks indicated a significant difference (p<0.05). c. ROS production and quantitation. Representative images of heart sections stained with Dihydroethidium (DHE), which, after oxidation, intercalated into DNA and stained the nuclei red. Mice were treated with doxorubicin (5 mg/kg) once a week for 5 weeks. […] The numbers of DHE-positive and total nuclei were counted as described and the percentage of DHE-positive nuclei was determined. […]

[4] = test system: HL-1 cells; test: PGC-1 expression in HL-1 cells by RT-qPCR; assay type: cell-based; conditions: doxorubicin 1 μm for 2 or 4 hours
Protocol: FIGS. 7a-e: a, b. PGC-1 expression in HL-1 cells. […] Expression was measured with RT-qPCR. c, d. CHiP analysis in HL-1 cells. HL-1 cardiomyocytes were treated with (right bars) or without (left bars) DOX ([…]) for 2 hrs and isolated for ChIP using the Top2β antibody. The eluted DNA and Input were PCR amplified to detect specific promoter regions represented in the schematic above the respective ChIP data. […] CHiP study in cardiomyocytes. Cardiomyocytes were isolated from control (n=4) and Dox-treated (n=4) mice and subject to ChIP with the Top2b antibody. The data represent real-time PCR ratios for the fold-enrichment of Top2b at the respective promoters.

[5] = test system: mouse heart; test: Cardiac MRI for measuring cardiac function after chronic doxorubicin; conditions: mice, doxorubicin 5 mg/kg ip once a week for 5 weeks; decreased from 57% (Example 4, FIG. 13)
Protocol: Before Cre induction, cardiac MRI scan was performed on each mouse to examine the baseline ejection fraction. Cardiomyocyte-specific Cre induction was carried out by treating mice with tamoxifen. […] Doxorubicin treatment (5 mg/kg, i.p., once a week for 5 weeks) was started 7 days after the second MRI scan. Two weeks after the last dose of doxorubicin, a third MRI scan was performed (FIG. 6a).
Every mouse in the EF experiments received 3 MRI scans, i.e., a baseline scan, a second scan 2 weeks after the end of tamoxifen treatment, and a third scan 2 weeks after the last dose of doxorubicin. […] Mice were anesthetized with isoflurane (2.5% in 97.5% O2), and scanned on a 7.0 T Biospec small animal scanner (Bruker Biospin Inc., Billerica, Mass.). Imaging gradients with 60 mm inner diameter (ID) were used with a 35 mm ID linear birdcage-style volume resonator. T1-weighted anatomic reference images were acquired using a three dimension (3D) fast low-angle shot (FLASH) gradient echo sequence. A retrospectively gated FLASH pulse sequence was used to acquire cardiac cine images with excellent contrast between bright blood and adjacent myocardium. To measure volumetric left ventricular ejection fraction (LVEF), at least 6 short axis images were scanned at 1 mm interval from the apex to the base of the heart. End-diastolic (ED) and end-systolic (ES) left ventricular volumes were obtained by the biplane area length method, and LVEF was calculated with the equation: [(ED-ES)/ED]/100.
Two weeks after completion of tamoxifen treatment mice were treated with doxorubicin or drug vehicle. Two cohorts of mice were treated with different schedules. […] To evaluate the chronic effect of doxorubicin on cardiac function, doxorubicin (5 mg/kg, i.p.) was administered once a week for 5 weeks, and cardiac function was examined 2 weeks after the last dose of doxorubicin by using MRI.
The effect of chronic doxorubicin treatment (5 mg/kg, ip, once a week for 5 weeks) was evaluated for its effect on ejection fraction.

## COc1cccc2c1C(=O)c1c(O)c3c(c(O)c1C2=O)C[C@@](O)(C(=O)CO)C[C@@H]3O[C@H]1C[C@H](N)[C@H](O)[C@H](C)O1 [doxorubicin]
[1]; Top2b+/+ mice
  DSBs in the nuclei (γ-H2AX-positive nuclei): caused DSBs
[1]
  Reduction of doxorubicin-caused DSBs in Top2bΔ/Δ mice versus Top2b+/+ mice: 60%
[2]
  Oxygen consumption rate (OCR): significantly reduced
[3]; Top2b+/+ mice, doxorubicin 5 mg/kg once a week for 5 weeks, hearts 72 h after last dose
  Fibrosis in the hearts (Masson's Trichrome): patchy fibrosis
[3]; Top2bΔ/Δ hearts, chronic doxorubicin 5 mg/kg once a week for 5 weeks
  Fibrosis and other pathological changes after chronic treatment, relative to Top2b+/+ hearts: much less so
[4]
  Expression of PGC-1α: Reduced expression
  Expression of PGC-1β: Reduced expression
[5]
  Ejection fraction after treatment: 45%
